The record followed here is patent publication US20230257423A1, “COMPOSITIONS FOR TREATING EPITHELIAL BARRIER FUNCTION DISORDERS” (ENTEROME, priority 2020, published 2023).

The subject of assay [1] is PBMC derived DCs. In words: Array (transcriptomics) on PBMC derived DCs. The format is cell-based, human. Details: SLC39A14 gene expression / IL6 gene expression / CCL1 gene expression / CCL8 gene expression / TNF-α gene expression: unit not given here. Conditions: 3 donors, 6h, TNF-α 10 ng/ml, PHA 3 μg/ml, LPS 3 ng/ml, PAM3CSK4 10 ng/ml, MDP 5 μg/ml. The procedure:
DCs from three different donors were seeded at 1.0×10^5 DCs/well in a 48 well plate in 0.5 ml of complete IMDM. The effect of the active fractions of the F4 clone was compared to the same fractions purified from the negative control (pBAD-fractions). TNF-α (10 ng/ml), PHA (3 μg/ml), LPS (3 ng/ml), PAM3CSK4 (10 ng/ml), and MDP 5 μg/ml were used as control.
Data were generated and analyzed using Spotfire software.
Transcriptomics was carried out on PBMC derived DCs from 3 donors.
DCs were stimulated (6h) with: • TNFα, PHA, LPS, PAM3CSK4, MDP=Positive control • F13, F25=HPLC fractions obtained from the complemented and functional F4D5-MsbA1-A2 clone • F4D5-pBAD-F13, F4D5-pBAD-F25=HPLC fractions obtained from the F4D5-pBADclone (negative control)
Data analysis was realised using TIBCO Spotfire software. The F4 fractions (from both positive and negative clones) were analysed individually and compared to known agonists (TNFα, PHA, LPS, PAM3CSK4, MDP).

Assay [2] has as its system Monocyte-derived Dendritic Cells. Kind of assay: AlphaLISA IL10 secretion by dendritic cells. In kind it is cell-based, human. Conditions: for IL-10 secretion from DCs in co-stimulation with TLR activators: LPS 100 ng/ml or FIMH 10 μg/ml, mean of 3 MoDC donors, FIG. 9. How it is done:
Dendritic Cells (DCs) were prepared from PBMC (Buffy Coat) and differentiated with GM-CSF (D 1:10000; =5 μl/50 ml) and IL-4 (D 1:5000; =10 μl/50 ml).
In this test, 30,000 cells/well were seeded in complete IMDM media (2 mM L-glutamine, 50 IU/mL penicillin, […] streptomycin, 10 mM Hepes and 10% heat-inactivated foetal calf serum) in 96 wells plates 24h before activation (and kept in a humidified 5% CO2 atmosphere at 37° C.). Pre-purified, or HPLC-eluted, fractions as well as EB7020 chemically synthetized and various controls were added to reporter cells at 10% vol/vol to a final volume of 100 μl.
AlphaLisa (Perkin Elmer) was realized on supernatant according the supplier protocol (for complete references: AlphaLISA® Research Reagents Human Interleukin 10 (IL10) Kit Product No.: AL218 C/F sold by PerkinElmer).

For the compound TNF-α, in assay [1], the CCL1 gene expression came to 4.2, the CCL8 gene expression was found to be 11.2, the IL6 gene expression is reported as 32.9 and the PERP gene expression amounted to 1.0. In assay [1], the PMP22 gene expression was 0.8, the SLC39A14 gene expression came to 1.2 and the TNF-α gene expression is recorded as 5.6.
In assay [1], `CC(=O)N[C@@H]1[C@@H](O[C@H](C)C(=O)N[C@@H](C)C(=O)N[C@H](CCC(=O)O)C(N)=O)[C@H](O)[C@@H](CO)O[C@H]1O` [MDP] came in with a CCL1 gene expression of 3.1, a CCL8 gene expression of 4.1, an IL6 gene expression of 9.4 and a PERP gene expression of 1.6. In assay [1], this compound displayed a PMP22 gene expression of 1.0, an SLC39A14 gene expression of 0.9 and a TNF-α gene expression of 3.5.
With `CC(=O)NC1C(OP(=O)(O)O)OC(CO)C(O)C1OC(C)C(=O)NC(C)C(=O)NC(CCC(=O)NC(CCCC(N)C(=O)O)C(=O)O)C(=O)O` (stereo not shown) [EB7020, M-Tri-DAP monophosphate], the “IL-10 secretion from DCs in co-stimulation with TLR activators” value (from here on “IL-10 secretion from DCs”) in assay [2] is “Synergy”. Besides, the “IL-10 secretion from human DCs” value in assay [2] (chemically synthesized compound, in presence of LPS, FIG. 8) is “IL-10 secretion is induced”.
In assay [1], PAM3CSK4 registered a CCL1 gene expression of 30.6, a CCL8 gene expression of 64.8, an IL6 gene expression of 718.1 and a PERP gene expression of 2.6. In assay [1], this compound returned a PMP22 gene expression of 1.0, an SLC39A14 gene expression of 1.6 and a TNF-α gene expression of 28.4.
On to `CC(=O)N[C@H]1[C@@H](OP(=O)(O)OP(=O)(O)OC[C@H]2O[C@@H](n3ccc(=O)[nH]c3=O)[C@H](O)[C@@H]2O)O[C@H](CO)[C@@H](O)[C@@H]1O[C@H](C)C(=O)N[C@@H](C)C(=O)N[C@H](CCC(=O)N[C@@H](CCC[C@@H](N)C(=O)O)C(=O)O)C(=O)O` [EB7021, UDP-M-Tri-DAP], for which the “IL-10 secretion from DCs” value in assay [2] was “Synergy”.
As to `CC(=O)NC1C(OP(=O)(O)OP(=O)(O)OC[C@H]2O[C@@H](n3ccc(=O)[nH]c3=O)C(O)C2O)OC(CO)C(O)C1OC(C)C(=O)NC(C)C(=O)NC(CCC(=O)NC(CCCC(N)C(=O)O)C(=O)NC(C)C(=O)O)C(=O)O` (stereo partly shown) [EB7022, UDP-M-Tetrapeptide], the “IL-10 secretion from DCs” value in assay [2] is recorded as “Synergy”.
